Test results from publication PMC12371506 (ACS Bio & Med Chem Au, 2025).
Residues, ends and D or L forms follow the SMILES beside them. *: point of attachment. Cbz = O=C(OCc1ccccc1)*; CH2F = FC*

Assays:
[1] = target: T1, caspase-9 (Homo sapiens, UniProt P55211); experiment: In vitro inhibition assay, caspase-9; format: biochemical
T1 sequence (P55211 1-315 limits assumed): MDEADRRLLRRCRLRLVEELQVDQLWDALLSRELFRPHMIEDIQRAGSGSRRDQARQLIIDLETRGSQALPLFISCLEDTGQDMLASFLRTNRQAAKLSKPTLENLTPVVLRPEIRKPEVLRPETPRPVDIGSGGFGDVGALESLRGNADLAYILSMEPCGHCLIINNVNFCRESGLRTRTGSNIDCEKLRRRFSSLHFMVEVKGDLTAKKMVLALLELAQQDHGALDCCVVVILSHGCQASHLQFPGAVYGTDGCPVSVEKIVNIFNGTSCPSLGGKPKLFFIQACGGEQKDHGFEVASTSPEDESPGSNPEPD
T1 sequence (P55211 331-416 limits assumed): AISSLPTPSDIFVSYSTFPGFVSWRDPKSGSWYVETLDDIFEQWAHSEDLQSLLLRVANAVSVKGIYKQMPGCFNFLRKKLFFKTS

[2] = system: HCC1806 triple-negative breast cancer cells; experiment: TNF-α-induced extrinsic apoptosis in HCC1806 cells; conditions: 10 μM inhibitor 30 min, then TNF-α; early time points (2–6 h)
[3] = system: THP1 monocytes; experiment: TRAIL-induced extrinsic apoptosis in THP1 monocytes; format: cell-based, human; conditions: 25 μM inhibitor

CCO[C@@H]1OC(=O)C[C@@H]1NC(=O)[C@@H]1CCCN1C(=O)[C@@H](NC(=O)c1ccc(N)c(Cl)c1)C(C)(C)C [VX-765, (S)-1-((S)-2-{[1-(4-amino-3-chloro-phenyl)-methanoyl]-amino}-3,3-dimethyl-butanoyl)-pyrrolidine-2-carboxylic acid ((2R,3S)-2-ethoxy-5-oxo-tetrahydro-furan-3-yl)-amide]
IC50 [1]: 540 ± 260 nM

CC[C@H](C)[C@H](NC(=O)OCc1ccccc1)C(=O)N[C@@H](CCC(=O)OC)C(=O)N[C@H](C(=O)N[C@@H](CC(=O)OC)C(=O)CF)[C@@H](C)O [zIETD-FMK] (Cbz-IE(OMe)TD(OMe)-CH2F)
caspases-3/7 activation (caspase-3/7 dye) [2]: inhibition of caspases-3/7 activation | IC50 [1]: 1470 ± 620 nM

COC(=O)CC[C@H](NC(=O)[C@H](CC(C)C)NC(=O)OCc1ccccc1)C(=O)N[C@@H](Cc1c[nH]cn1)C(=O)N[C@@H](CC(=O)OC)C(=O)CF [zLEHD-FMK] (Cbz-LE(OMe)HD(OMe)-CH2F)
relative potency at inhibiting caspases-3/7 activity (caspases-3/7 dye) [3]: more potent than zIETD-FMK | IC50 [1]: 800 ± 320 nM
